Legend:
[1] = tested on: choroidal neovascularization induced by krypton laser irradiation; test: Evaluation test for inhibitory effect on choroidal neovascularization (rat model induced by krypton laser irradiation); format: in vivo, Brown Norway rat; details: po, 168 h, 30 mg/kg/day orally once a day for 7 days (day 0 to day 6), fluorescein fundus angiography on day 7, versus vehicle administration group, average of 5 to 8 eyes of 3 to 4 rats, read-out: Ratio of incidence of neovascularization (% of control)
Excerpt: 2. Evaluation Test for Inhibitory Effect on Choroidal Neovascularization
As one of the methods widely used for evaluating an inhibitory effect on choroidal neovascularization, a rat model of choroidal neovascularization induced by krypton laser irradiation has been reported in Graefe's Arch. Cli. Exp. Ophthalmol., 235, 313-319 (1997). According to the method described in this document, a ratio of incidence of choroidal neovascularization of a present compound administration group to that of a vehicle administration group was calculated using the rat model of choroidal neovascularization, and an inhibitory effect of the present compound on choroidal neovascularization was evaluated using the calculated value as an index. Specific test methods will be described below.
(Preparation of Administration Liquid of Test Compound)
A test compound was suspended in a 1% aqueous methyl cellulose solution, whereby a 6 mg/mL test compound suspension was prepared.
(Preparation of Rat Model of Choroidal Neovascularization Induced by Krypton Laser)
1) To a Brown Norway rat (male, 7 to 8 weeks of age), a mixed solution of a 5% ketamine hydrochloride injection solution and a 2% xylazine hydrochloride injection solution (7:1) was intramuscularly administered at a dose of 1 mL/kg to effect systemic anesthesia.
2) After a 0.5% tropicamide-0.5% phenylephrine hydrochloride eye drop was instilled into the eyes to cause mydriasis, photocoagulation was performed using a krypton laser photocoagulation apparatus (MC-7000, manufactured by NIDEK Co., Ltd.). The krypton laser irradiation was performed at eight spots per eye sparsely by focusing on the retinal deep layer avoiding large retinal vessels in a posterior section of ocular fundus. The photocoagulation conditions were set such that the spot size was 100 μm, the output was 100 mW and the coagulation time was 0.1 sec.
3) After the photocoagulation, the ocular fundus photography was performed (PRO III, manufactured by Kowa Company, Ltd.) to confirm the photocoagulation (krypton laser irradiation) sites.
(Administration Method of Test Compound)
1) The test compound suspension (30 mg/kg/day) was orally administered once a day for 7 consecutive days from the day of krypton laser irradiation (day 0) until day 6.
2) A 1% aqueous methyl cellulose solution was administered in the same manner as in 1) in place of the test compound suspension, and the obtained result was designated as the vehicle administration group.
1). On day 7 after the photocoagulation, 0.1 mL of a 10% aqueous fluorescein solution was injected into the tail vein, and fluorescein fundus angiography was performed (PRO III, manufactured by Kowa Company, Ltd.).
2) In the fluorescein fundus angiography, a spot where fluorescence leakage was not observed was determined to be negative and a spot where fluorescence leakage was observed was determined to be positive. With respect to photocoagulation sites where a little fluorescence leakage was observed, in the case where there were two such photocoagulation sites, it was determined to be positive.
(Calculation Formula of Incidence of Neovascularization)
An incidence (%) of neovascularization of each administration group and a ratio of incidence of neovascularization of the test compound administration group to that of the vehicle administration group were calculated from the following formulae, respectively. Incidence of Neovascularization of Each Administration Group (%)=[(Number of Positive Photocoagulation. Sites)/(Number of Total Photocoagulation Sites)]×100 Ratio of Incidence of Neovascularization of Test Compound Administration Group to that of Vehicle Administration Group (% of Control)=[(Incidence of Neovascularization of Test Compound Administration Group)/(Incidence of Neovascularization of Vehicle Administration Group)]×100 (Evaluation Results)

[2] = tested on: TNF-α-induced IL-6 production in normal human skin fibroblast-derived CCD-1059Sk cells; test: Test for measurement of inhibitory activity against TNF-α-induced IL-6 production; format: cell-based; details: Homo sapiens, CCD-1059Sk, 16 h, test compound at 10 μM, TNF-α stimulation 16 hours, inhibition ratio of 100% or more is indicated as 100%
Experimental: 1. Test for Measurement of Inhibitory Activity Against IL-6 Production
An inhibitory effect on TNF-α-induced IL-6 production in normal human skin fibroblast-derived CCD-1059Sk cells (ATCC No. CRL-2072) was evaluated. The amount of IL-6 was determined by the homogeneous time-resolved fluorescence method using HTRF™ Human IL-6 kit (Cat. No. 62IL6PEB, manufactured by CIS-Bio international, Inc.). Specific test methods will be described below.
(Preparation of Test Compound Solution)
After a test compound was dissolved in dimethyl sulfoxide, the resulting solution was diluted with D-MEM medium containing 0.1% heat-inactivated fetal bovine serum, 0.1 mM MEM non-essential amino acid solution, 100 U/mL penicillin and 100 μg/mL streptomycin (hereinafter referred to as “medium”), whereby a 40 μM test compound solution was prepared.
(Test Method and Measurement Method)
1) CCD-1059Sk cells prepared at a density of 3×10^5 cells/mL were inoculated in a 384-well plate in an amount of 10 μL per well such that the cell density was 3×10^3 cells/well.
2). After the plate was incubated at 37° C. for several hours in a CO2 incubator, 5 μL of the test compound was added to each well.
3) After the plate was incubated at 37° C. for 1 hour in a CO2 incubator, 5 μL of a 40 ng/mL TNF-α solution was added to each well.
4) After the plate was incubated at 37° C. for 16 hours in a CO2 incubator, 10 μL of a cryptate-labeled anti-IL-6 antibody and an XL665-labeled anti-IL-6 antibody containing potassium fluoride was added to each well.
5) After the plate was incubated at room temperature for several hours, a fluorescence intensity ratio (665 nm/620 nm) was determined for each well using a multimode plate reader Analyse™ HT (manufactured by Molecular Device Corporation) and Criterion Host software version 2.00 (manufactured by Molecular Device Corporation), and then, the amount of IL-6 was calculated.
6) The same procedures as in the above 1) to 5) were performed except that 0.4% dimethyl sulfoxide was added in place of the test compound, and the obtained result was designated as the control.
7) The same procedures as in the above 1) to 5) were performed except that 0.4% dimethyl sulfoxide and the medium were added in place of the test compound and the TNF-α solution, respectively, and the obtained result was designated as the background.
(Calculation Formula of IL-6 Production Inhibition Ratio)
An IL-6 production inhibition ratio (%) was calculated from the following formula. IL-6 Production Inhibition Ratio (%)=100×{1−[(Amount of IL-6 for Test Compound)−(Amount of IL-6 for Background)/(Amount of IL-6 for Control)−(Amount of IL-6 for Background)]} (Evaluation Results)

| Compound | response vs control in vivo at 30 mg/kg [1] | inhibition at 10 µM [2] |
| --- | --- | --- |
| NC(=O)Nc1[nH]c(-c2ccc(F)cc2)cc1C(N)=O [Compound 1-8, 2-Aminocarbonylamino-5-(4-fluorophenyl) pyrrole-3-carboxamide] | 31% | 93% |
| COc1ccccc1-c1cc(C(N)=O)c(NC(N)=O)[nH]1 [Compound 1-9, 2-Aminocarbonylamino-5-(2-methoxyphenyl) pyrrole-3-carboxamide] | 40% | 100% |
| NC(=O)Nc1[nH]c(-c2cccc(Cl)c2)cc1C(N)=O [Compound 1-25, 2-Aminocarbonylamino-5-(3-chlorophenyl) pyrrole-3-carboxamide] | 52% | 99% |
| CCCOc1ccccc1-c1cc(C(N)=O)c(NC(N)=O)[nH]1 [Compound 4-4, 2-Aminocarbonylamino-5-(2-propyloxyphenyl) pyrrole-3-carboxamide] | 71% | 90% |
| CCCOc1ccc(F)cc1-c1cc(C(N)=O)c(NC(N)=O)[nH]1 [Compound 4-34, 2-Aminocarbonylamino-5-(5-fluoro-2-propyloxyphenyl) pyrrole-3-carboxamide] | 75% | 100% |
| CCCOc1ccc(Cl)cc1-c1cc(C(N)=O)c(NC(N)=O)[nH]1 [Compound 4-37, 2-Aminocarbonylamino-5-(5-chloro-2-propyloxyphenyl)pyrrole-3-carboxamide] | 69% | 97% |
| N#CCOc1ccc(Cl)cc1-c1cc(C(N)=O)c(NC(N)=O)[nH]1 [Compound 4-43, 2-Aminocarbonylamino-5-(5-chloro-2-cyanomethyloxyphenyl)pyrrole-3-carboxamide] | 57% | 99% |
| NC(=O)Nc1[nH]c(-c2cc(F)ccc2OCCO)cc1C(N)=O [Compound 4-54, 2-Aminocarbonylamino-5-[5-fluoro-2-(2-hydroxyethyloxy)phenyl]pyrrole-3-carboxamide] | 86% | 96% |
